One may read the melting point as the temperature, or range, at which the solid turns liquid.

Structures can show the parent of a compound that is named as a salt.

In turn, `CSc1nc(NS(C)(=O)=O)c(C#N)c(-c2ccsc2)c1C#N` [Example 45, N-(3,5-dicyano-6-methylsulfanyl-4-thiophen-3-ylpyridin-2-yl)methanesulfonamide] displayed a melting point greater than 250 °C.

In turn, `COC(=O)CNc1nc(OC)c(C#N)c(-c2ccccc2)c1C#N` [Example 363, methyl [(3,5-dicyano-6-methoxy-4-phenylpyridin-2-yl)amino]acetate] showed a melting point of 140 to 141 °C.

In turn, `N#Cc1c(N)nc(OCc2cccnc2)c(C#N)c1-c1ccccc1` (as salt: HCl) (hydrate or solvate) [Example 208, 2-amino-4-phenyl-6-(pyridin-3-ylmethoxy)pyridine-3,5-dicarbonitrile] gave a melting point of 174 to 175 °C.

In turn, `CSc1nc(N)c(C#N)c(-c2ccco2)c1C#N` [Example 84] returned a melting point of 229 to 230 °C.

The molecule `COc1nc(N)c(C#N)c(-c2ccc3nc[nH]c3c2)c1C#N` (as salt: HCl) [Example 173] gave a melting point of 299 to 300 °C.

Molecule `CCCCCC(=O)Nc1nc(OC)c(C#N)c(-c2ccccc2F)c1C#N` [Example 407, N-[3,5-dicyano-4-(2-fluorophenyl)-6-methoxypyridin-2-yl]hexanamide] gave a melting point of 139 to 141 °C.

`CCC(=O)Nc1nc(OC)c(C#N)c(-c2ccccc2F)c1C#N` [Example 401, N-[3,5-dicyano-4-(2-fluorophenyl)-6-methoxypyridin-2-yl]propionamide]: the melting point lay within 168 to 169 °C.

Consider `COc1nc(N(C(=O)Oc2ccccc2)C(=O)Oc2ccccc2)c(C#N)c(-c2ccccc2F)c1C#N`, for which the melting point lay in the range of 156 to 158 °C.

As to `COc1nc(N)c(C#N)c(-c2cccc(CO)c2)c1C#N` [Example 34, 2-amino-4-[3-(hydroxymethyl)phenyl]-6-methoxypyridine-3,5-dicarbonitrile], the melting point was in the range of 218.5 to 219.5 °C.

As to `COc1nc(N)c(C#N)c(C2CCOC2)c1C#N` (stereo not drawn) [Example 163], the melting point was in the range of 205 to 206 °C.

With `N#Cc1c(N)nc(N)c(C#N)c1-c1ccccc1` [Example 41, 2,6-diamino-4-phenylpyridine-3,5-dicarbonitrile], the melting point is greater than 300 °C.

`CCc1c(C#N)c(N)nc(OC)c1C#N` [Example 149] yielded a melting point of 160 to 161 °C.

Molecule `N#Cc1c(N)nc(SCc2ccccc2)c(C#N)c1-c1ccccc1` [Example 217] had a melting point of 212 to 213 °C.

The molecule `N#Cc1c(N)nc(OCc2cccnc2)c(C#N)c1Cc1ccccc1` [Example 436, 2-amino-4-benzyl-6-(pyridin-3-ylmethoxy)pyridine-3,5-dicarbonitrile] displayed a melting point of 204 to 205 °C.

With `CSc1nc(Br)c(C#N)c(-c2cccs2)c1C#N` [Example 24, 2-bromo-6-methylsulfanyl-4-thiophen-2-ylpyridine-3,5-dicarbonitrile], the melting point is 169 to 171 °C.

As to `COc1nc(N)c(C#N)c(C2CCNCC2)c1C#N` (as salt: hydrochloride) (hydrate or solvate), the melting point is 240 °C (dec.).

Molecule `COc1nc(N)c(C#N)c(-c2cc(F)ccc2F)c1C#N` [Example 126, 2-amino-4-(2,5-difluorophenyl)-6-methoxypyridine-3,5-dicarbonitrile] showed a melting point of 201 to 202 °C.

The molecule `COc1nc(F)c(C#N)c(-c2ccccc2)c1C#N` [Example 43, 2-fluoro-6-methoxy-4-phenylpyridine-3,5-dicarbonitrile] yielded a melting point of 156 to 158 °C.

In the case of `COc1nc(SC)c(C#N)c(-c2ccccc2)c1C#N` [Example 371], the melting point lay within 168 to 170 °C.

Take `CSc1nc(N)c(C#N)c(-c2c[nH]cn2)c1C#N` (as salt: HCl) (hydrate or solvate) [Example 82]: the melting point is 272 to 273 °C (dec.).

On to `COc1nc(OC)c(C#N)c(-c2ccccc2)c1C#N` [Example 358], for which the melting point was 157 to 159 °C.

In the case of `COc1nc(N)c(C#N)c(-c2ccnc(N)n2)c1C#N` (as salt: HCl) (hydrate or solvate) [Example 174], the melting point is 80 °C (dec.).

In the case of `COc1nc(NC(=O)N(C)C)c(C#N)c(-c2ccccc2F)c1C#N` [Example 71, 3-[3,5-dicyano-4-(2-fluorophenyl)-6-methoxypyridin-2-yl]-1,1-dimethylurea], the melting point lay in the range of 82 to 86 °C.

On to `N#Cc1c(N)nc(O)c(C#N)c1Cc1ccccc1` [Example 434], for which the melting point lay in the range of 314 to 315 °C.

For `COc1nc(NC(=O)NCCO)c(C#N)c(-c2ccccc2F)c1C#N` [Example 420, 1-[3,5-dicyano-4-(2-fluorophenyl)-6-methoxypyridin-2-yl]-3-(2-hydroxyethyl)ur ea], the melting point was in the range of 140 to 144 °C.

For the molecule `N#Cc1c(N)nc(OCc2ccccc2)c(C#N)c1-c1cccs1` [Example 378], the melting point was in the range of 186 to 187 °C.

For the molecule `COc1ncc(C#N)c(-c2ccccc2)c1C#N` [Example 26, 2-methoxy-4-phenylylpyridine-3,5-dicarbonitrile], the melting point fell in the range of 148 to 149 °C.

Consider `N#Cc1c(N)nc(OCCOC(=O)[C@@H](N)Cc2ccccc2)c(C#N)c1-c1ccccc1` (as salt: hydrochloride) (hydrate or solvate) [Example 15, 2-[(2-amino-3,5-dicyano-4-phenylpyridin-6-yl)oxy]ethyl (S)-2-amino-3-phenylpropanoate monohydrochloride monohydrate], for which the melting point was 161 to 162 °C.

Molecule `N#Cc1c(N)nc(OCCO)c(C#N)c1-c1ccccc1` [Example 13, 2-amino-6-(2-hydroxyethoxy)-4-phenylpyridine-3,5-dicarbonitrile] had a melting point of 212 to 214 °C.

With `N#Cc1c(N)nc(-n2ccnc2)c(C#N)c1-c1ccccc1` [Example 211], the melting point lay in the range of 256 to 258 °C.

`COc1nc(NCCO)c(C#N)c(-c2ccccc2)c1C#N` [Example 362, 2-[(2-hydroxyethyl)amino]-6-methoxy-4-phenylpyridine-3,5-dicarbonitrile]: the melting point was 153 to 155 °C.

As to `COc1nc(NC(=O)COCc2ccccc2)c(C#N)c(-c2ccccc2F)c1C#N` [Example 399, 2-benzyloxy-N-[3,5-dicyano-4-(2-fluorophenyl)-6-methoxypyridin-2-yl]acetamide], the melting point was 164 to 166 °C.

Molecule `COc1nc(NC(=O)COc2ccccc2)c(C#N)c(-c2ccccc2F)c1C#N` [Example 398, N-[3,5-dicyano-4-(2-fluorophenyl)-6-methoxypyridin-2-yl]-2-phenoxyacetamide] came in with a melting point of 205 to 206 °C.

Molecule `N#Cc1c(N)nc(SCc2cccnc2)c(C#N)c1Cc1ccccc1` [Example 438, 2-amino-4-benzyl-6-[(pyridin-3-ylmethyl)sulfanyl]pyridine-3,5-dicarbonitrile] displayed a melting point of 259 to 260 °C.

For the molecule `COc1nc(N)c(C#N)c(-c2ccccc2)c1C#N` [Example 2], the melting point is 251 to 252 °C.

In turn, `COc1nc(NC(C)=O)c(C#N)c(-c2c(F)cccc2F)c1C#N` [Example 63, N-[3,5-dicyano-4-(2,6-difluorophenyl)-6-methoxypyridin-2-yl]acetamide] had a melting point of 200 to 201 °C.

Turning to `COc1nc(N)c(C#N)c(-c2ccc3cc[nH]c3c2)c1C#N` (as salt: salt) (hydrate or solvate) [Example 171], the melting point lay within 270 to 272 °C.

The molecule `CN(C)c1cccc(-c2c(C#N)c(N)nc(SCc3cccnc3)c2C#N)c1.Cl.Cl` yielded a melting point of 243 to 245 °C.

With `CSc1nc(N)c(C#N)c(-c2ccc(C(=O)O)cc2)c1C#N` [Example 29, 4-(2-amino-3,5-dicyano-6-methylsulfanylpyridin-4-yl)benzoic acid], the melting point lay within 288 to 290 °C.

The molecule `COc1nc(N)c(C#N)c(-c2ccc(CN)cc2)c1C#N.Cl` came in with a melting point greater than 300 °C.

`CSc1nc(N)c(C#N)c(-c2cccc(N)c2)c1C#N.Cl` displayed a melting point of 277 to 278 °C.

The molecule `N#Cc1c(N)nc(Oc2cccc(C(=O)O)c2)c(C#N)c1-c1ccccc1` [Example 31, 3-[(6-amino-3,5-dicyano-4-phenylpyridin-2-yl)oxy]benzoic acid] registered a melting point of 284 to 286 °C.

As to `CSc1nc(N)c(C#N)c(-c2ccccc2)c1C#N` [Example 76], the melting point stood at 297 °C.

In turn, `CNc1nc(OC)c(C#N)c(-c2ccccc2)c1C#N` [Example 360] returned a melting point of 216 to 218 °C.

Molecule `N#Cc1cc(C#N)c(Oc2ccccc2)nc1N` [Example 426] displayed a melting point of 235 to 237 °C.

On to `N#Cc1c(N)nc(SCc2ccccc2)c(C#N)c1-c1cccs1` [Example 386], for which the melting point lay in the range of 208 to 209 °C.

On to `N#Cc1c(N)nc(N2CCNCC2)c(C#N)c1-c1ccccc1` (as salt: HCl) [Example 210], for which the melting point is 260 to 263 °C (dec.).

As for `N#Cc1c(N)nc(Br)c(C#N)c1-c1cccs1` [Example 373], the melting point is 312 °C.

The molecule `COc1nc(N(C(C)=O)C(C)=O)c(C#N)c(-c2ccccc2F)c1C#N` [Example 59, 2-diacetylamino-4-(2-fluorophenyl)-6-methoxypyridine-3,5-dicarbonitrile] registered a melting point of 137 to 138 °C.

The molecule `COc1nc(NC(=O)C(C)(C)C)c(C#N)c(-c2ccccc2F)c1C#N` [Example 406, N-[3,5-dicyano-4-(2-fluorophenyl)-6-methoxypyridin-2-yl]-2,2-dimethylpropio namide] gave a melting point of 162 to 164 °C.

Molecule `COc1nc(NC(=O)Cc2ccccc2)c(C#N)c(-c2ccccc2F)c1C#N` [Example 416, N-[3,5-dicyano-4-(2-fluorophenyl)-6-methoxypyridin-2-yl]-2-phenylacetamide] showed a melting point of 206 to 208 °C.

In turn, `N#Cc1c(N)nc(Cl)c(C#N)c1-c1cccs1` [Example 372] had a melting point of 301 °C.

Molecule `COc1nc(NC(=O)C(C)C)c(C#N)c(-c2ccccc2F)c1C#N` [Example 405, N-[3,5-dicyano-4-(2-fluorophenyl)-6-methoxypyridin-2-yl]isobutyramide] displayed a melting point of 193 to 194 °C.

On to `Cl.Cl.N#Cc1c(N)nc(Sc2cccnc2)c(C#N)c1-c1cccc(N)c1`, for which the melting point was 285 to 288 °C (dec.).
